Reference: US20160038468A1 (priority 2013, published 2016)
≈ marks a conversion by molar mass, not a printed value. Where two headings read alike, the source gives them in different places.

Tests used:
Format in all cases: cell-based
Settings in all cases: for MIC: read-out: Minimal Inhibitory Concentration (MIC)
Prevotella timonensis = test: Agar dilution MIC (CLSI), Prevotella timonensis vaginal isolates
Peptoniphilus harei = test: Agar dilution MIC (CLSI), Peptoniphilus harei vaginal isolates
Peptoniphilus lacrimalis = test: Agar dilution MIC (CLSI), Peptoniphilus lacrimalis vaginal isolates
[1] = Hoylesella timonensis, # tested 33
[2] = Peptoniphilus harei, # tested 23
[3] = Peptoniphilus lacrimalis, # tested 20

## Cc1ncc([N+](=O)[O-])n1CCO [Metronidazole]
Prevotella timonensis; Hoylesella timonensis, isolate 601234 B
  MIC: 2 µg/mL (≈ 11.7 µM)
Prevotella timonensis; Hoylesella timonensis, isolate 601252 B
  MIC: 4 µg/mL (≈ 23.4 µM)
Prevotella timonensis; Hoylesella timonensis, isolate 601255 17
  MIC: 2 µg/mL (≈ 11.7 µM)
Prevotella timonensis; Hoylesella timonensis, isolate 601266 18
  MIC: 2 µg/mL (≈ 11.7 µM)
Prevotella timonensis; Hoylesella timonensis, isolate 601278 12
  MIC: > 128 µg/mL
Prevotella timonensis; Hoylesella timonensis, isolate 601281 22
  MIC: 2 µg/mL (≈ 11.7 µM)
Prevotella timonensis; Hoylesella timonensis, isolate 601287 H
  MIC: 2 µg/mL (≈ 11.7 µM)
Prevotella timonensis; Hoylesella timonensis, isolate 601293 13
  MIC: 4 µg/mL (≈ 23.4 µM)
Prevotella timonensis; Hoylesella timonensis, isolate 601367 E
  MIC: 4 µg/mL (≈ 23.4 µM)
Prevotella timonensis; Hoylesella timonensis, isolate 601370 13
  MIC: 4 µg/mL (≈ 23.4 µM)
Prevotella timonensis; Hoylesella timonensis, isolate 601388 S
  MIC: 4 µg/mL (≈ 23.4 µM)
Prevotella timonensis; Hoylesella timonensis, isolate 601401 J
  MIC: 2 µg/mL (≈ 11.7 µM)
Prevotella timonensis; Hoylesella timonensis, isolate 601411 S
  MIC: 4 µg/mL (≈ 23.4 µM)
Prevotella timonensis; Hoylesella timonensis, isolate 601414 O
  MIC: 4 µg/mL (≈ 23.4 µM)
Prevotella timonensis; Hoylesella timonensis, isolate 601422 39
  MIC: 2 µg/mL (≈ 11.7 µM)
Prevotella timonensis; Hoylesella timonensis, isolate 601429 11
  MIC: 2 µg/mL (≈ 11.7 µM)
Prevotella timonensis; Hoylesella timonensis, isolate 601459 21
  MIC: 2 µg/mL (≈ 11.7 µM)
Prevotella timonensis; [1]
  MIC50: 2 µg/mL (≈ 11.7 µM)
  MIC90: 4 µg/mL (≈ 23.4 µM)
Prevotella timonensis; MIC >[…], 33 samples
  Number of strains with indicated MIC: 1
Prevotella timonensis; number (%) of isolates, # tested 33, resistance: rifaximin >32, metronidazole >32, clindamycin >8 μg/ml
  Resistant: 1 (3) μg/ml
Peptoniphilus harei; # tested 23
  MIC Range: 1 to 4 µg/mL
Peptoniphilus harei; Peptoniphilus harei, isolate 426868V D
  MIC: 2 µg/mL (≈ 11.7 µM)
Peptoniphilus harei; Peptoniphilus harei, isolate 601098V Q
  MIC: 1 µg/mL (≈ 5.84 µM)
Peptoniphilus harei; Peptoniphilus harei, isolate 601203V 8
  MIC: 2 µg/mL (≈ 11.7 µM)
Peptoniphilus harei; Peptoniphilus harei, isolate 601212V 15
  MIC: 1 µg/mL (≈ 5.84 µM)
Peptoniphilus harei; Peptoniphilus harei, isolate 601233V R
  MIC: 4 µg/mL (≈ 23.4 µM)
Peptoniphilus harei; Peptoniphilus harei, isolate 601248V 23
  MIC: 1 µg/mL (≈ 5.84 µM)
Peptoniphilus harei; Peptoniphilus harei, isolate 601259V 11
  MIC: 2 µg/mL (≈ 11.7 µM)
Peptoniphilus harei; Peptoniphilus harei, isolate 601289V C
  MIC: 2 µg/mL (≈ 11.7 µM)
Peptoniphilus harei; Peptoniphilus harei, isolate 601293V 21
  MIC: 1 µg/mL (≈ 5.84 µM)
Peptoniphilus harei; Peptoniphilus harei, isolate 601302V F1
  MIC: 2 µg/mL (≈ 11.7 µM)
Peptoniphilus harei; Peptoniphilus harei, isolate 601311V R
  MIC: 1 µg/mL (≈ 5.84 µM)
Peptoniphilus harei; Peptoniphilus harei, isolate 601326V F
  MIC: 2 µg/mL (≈ 11.7 µM)
Peptoniphilus harei; Peptoniphilus harei, isolate 601342V F
  MIC: 1 µg/mL (≈ 5.84 µM)
Peptoniphilus harei; Peptoniphilus harei, isolate 601355V D
  MIC: 1 µg/mL (≈ 5.84 µM)
Peptoniphilus harei; Peptoniphilus harei, isolate 601365V 14
  MIC: 1 µg/mL (≈ 5.84 µM)
Peptoniphilus harei; Peptoniphilus harei, isolate 601374V F
  MIC: 2 µg/mL (≈ 11.7 µM)
Peptoniphilus harei; Peptoniphilus harei, isolate 601388V Q
  MIC: 1 µg/mL (≈ 5.84 µM)
Peptoniphilus harei; Peptoniphilus harei, isolate 601399V 16
  MIC: 1 µg/mL (≈ 5.84 µM)
Peptoniphilus harei; Peptoniphilus harei, isolate 601409V L
  MIC: 1 µg/mL (≈ 5.84 µM)
Peptoniphilus harei; Peptoniphilus harei, isolate 601413V 16
  MIC: 2 µg/mL (≈ 11.7 µM)
Peptoniphilus harei; Peptoniphilus harei, isolate 601426V D
  MIC: 1 µg/mL (≈ 5.84 µM)
Peptoniphilus harei; Peptoniphilus harei, isolate 601430V 22
  MIC: 1 µg/mL (≈ 5.84 µM)
Peptoniphilus harei; Peptoniphilus harei, isolate 601539V 25B
  MIC: 2 µg/mL (≈ 11.7 µM)
Peptoniphilus harei; [2]
  MIC50: 1 µg/mL (≈ 5.84 µM)
  MIC90: 2 µg/mL (≈ 11.7 µM)
Peptoniphilus lacrimalis; # tested 20
  MIC Range: 0.5 to 4 µg/mL
Peptoniphilus lacrimalis; Peptoniphilus lacrimalis, isolate 601028V 27A
  MIC: 2 µg/mL (≈ 11.7 µM)
Peptoniphilus lacrimalis; Peptoniphilus lacrimalis, isolate 601060V 32A
  MIC: 2 µg/mL (≈ 11.7 µM)
Peptoniphilus lacrimalis; Peptoniphilus lacrimalis, isolate 601078V O
  MIC: 1 µg/mL (≈ 5.84 µM)
Peptoniphilus lacrimalis; Peptoniphilus lacrimalis, isolate 601084V c
  MIC: 4 µg/mL (≈ 23.4 µM)
Peptoniphilus lacrimalis; Peptoniphilus lacrimalis, isolate 601105V 13
  MIC: 4 µg/mL (≈ 23.4 µM)
Peptoniphilus lacrimalis; Peptoniphilus lacrimalis, isolate 601139V 17
  MIC: 4 µg/mL (≈ 23.4 µM)
Peptoniphilus lacrimalis; Peptoniphilus lacrimalis, isolate 601213V 17
  MIC: 2 µg/mL (≈ 11.7 µM)
Peptoniphilus lacrimalis; Peptoniphilus lacrimalis, isolate 601255V 12
  MIC: 1 µg/mL (≈ 5.84 µM)
Peptoniphilus lacrimalis; Peptoniphilus lacrimalis, isolate 601261V O
  MIC: 1 µg/mL (≈ 5.84 µM)
Peptoniphilus lacrimalis; Peptoniphilus lacrimalis, isolate 601293V 15
  MIC: 1 µg/mL (≈ 5.84 µM)
Peptoniphilus lacrimalis; Peptoniphilus lacrimalis, isolate 601296V N
  MIC: 1 µg/mL (≈ 5.84 µM)
Peptoniphilus lacrimalis; Peptoniphilus lacrimalis, isolate 601305V K-1
  MIC: 1 µg/mL (≈ 5.84 µM)
Peptoniphilus lacrimalis; Peptoniphilus lacrimalis, isolate 601318V E
  MIC: 1 µg/mL (≈ 5.84 µM)
Peptoniphilus lacrimalis; Peptoniphilus lacrimalis, isolate 601330V H
  MIC: 1 µg/mL (≈ 5.84 µM)
Peptoniphilus lacrimalis; Peptoniphilus lacrimalis, isolate 601336V 47
  MIC: 1 µg/mL (≈ 5.84 µM)
Peptoniphilus lacrimalis; Peptoniphilus lacrimalis, isolate 601365V 13
  MIC: 2 µg/mL (≈ 11.7 µM)
Peptoniphilus lacrimalis; Peptoniphilus lacrimalis, isolate 601368V 39
  MIC: 0.5 µg/mL (≈ 2.92 µM)
Peptoniphilus lacrimalis; Peptoniphilus lacrimalis, isolate 601375V E
  MIC: 1 µg/mL (≈ 5.84 µM)
Peptoniphilus lacrimalis; Peptoniphilus lacrimalis, isolate 601388V B
  MIC: 1 µg/mL (≈ 5.84 µM)
Peptoniphilus lacrimalis; Peptoniphilus lacrimalis, isolate 601401V I
  MIC: 1 µg/mL (≈ 5.84 µM)
Peptoniphilus lacrimalis; [3]
  MIC50: 1 µg/mL (≈ 5.84 µM)
  MIC90: 4 µg/mL (≈ 23.4 µM)
